In US20260317333A1, “Heteroaryl Compounds as Ligand Directed Degraders of IRAK4” (Celgene Corporation, priority 2023, published 2026):
Where a name gives a salt, the structure may show the parent alone.

Target: T1, IRAK4 (Homo sapiens, UniProt Q9NWZ3)
T1 sequence (Q9NWZ3 1-460): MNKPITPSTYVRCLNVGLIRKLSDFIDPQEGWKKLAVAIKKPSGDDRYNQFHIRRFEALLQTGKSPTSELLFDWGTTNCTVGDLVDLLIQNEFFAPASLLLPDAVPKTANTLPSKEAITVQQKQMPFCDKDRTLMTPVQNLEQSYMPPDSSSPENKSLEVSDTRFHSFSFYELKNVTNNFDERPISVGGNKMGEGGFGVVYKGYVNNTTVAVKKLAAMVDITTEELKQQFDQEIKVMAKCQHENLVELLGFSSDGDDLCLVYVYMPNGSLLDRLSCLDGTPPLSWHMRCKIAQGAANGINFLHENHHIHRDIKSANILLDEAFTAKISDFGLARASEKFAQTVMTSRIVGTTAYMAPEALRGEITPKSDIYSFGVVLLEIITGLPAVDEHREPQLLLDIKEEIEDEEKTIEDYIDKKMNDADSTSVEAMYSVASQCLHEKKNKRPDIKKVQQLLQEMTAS
Assay: ALE THP1 HTRF (IRAK4 degradation in THP1 cells, HTRF with anti-IRAK4 antibodies)
Type: cell-based
Parameters: THP1 Homogeneous Time Resolved Fluorescence (ALE THP1 HTRF) Procedure; endogenous in cells; host or cells: THP1
Conditions: THP1 cell lysate; for DC50: read-out: ALE THP1 HTRF EC50
Description: Cell culture media was prepared in a tissue culture hood in a sterile environment by adding 10% FBS and 1% Penicillin Streptomycin to 500 mL no phenol red RPMI 1640 media. The media was filtered through a Nalgene Bottle Top Filter and stored at 4° C.
For Homogenous Time Resolved Fluorescence (HTRF) assays, a Cisbio HTRF kit was used, which included: Lysis Buffer #1 4×, Blocking Reagent #3 100×, 20× Antibody 1 (Anti-IRAK4 d2), 20× Antibody 2 (Anti-IRAK4 k), and Detection Buffer.
4× Lysis Buffer was stored at 4° C. For use as 1× Lysis buffer, the 4× solution was diluted with de-ionized water (distilled water, Gibco Cat. #15230279) and 100× Blocking Reagent in a 1:3:0.04 volume ratio.
20× Antibody Solution aliquots were stored at −80° C. and the Detection Buffer was stored at 4° C. For use as a 1× Antibody Solution, the 20× Antibody Solution aliquot was diluted with Detection Buffer in a 1:19 volume ratio.
Cells were lysed at room temperature for 45 min with shaking. A BCA protein assay was performed and normalization was conducted to the desired total protein concentration with 1× lysis buffer. Next, 1× Antibody Solutions were prepared by adding 380 μL Detection Buffer to 20 μL 20× Antibody Solution aliquots and mixing well. 1× Antibody Solutions were combined 1:1 and briefly vortexed. For control wells, 20 μL 1× anti IRAK4-k Antibody Solution was saved. The 384-well plate (ProxiPlate-384 Plus, Perkin Elmer Cat. #6008289) was loaded by adding 4 μL of the mixed Antibody Solution to empty wells using a single channel repeater. Using a multi-channel repeater, 16 μL lysate was added per well, and any bubbles that were formed were popped with 20 μL pipette tips and Kimwipe edges. In column 10, triplicates of each control were prepared. In wells A10, B10, and C10, buffer control was prepared by adding 16 μL Lysis Buffer and 4 μL Detection Buffer. In wells D10, E10, and F10, cryptate control was prepared by adding 16 μL Lysis Buffer, 2 μL Detection Buffer, and 2 μL 1× anti-IRAK4-k Antibody Solution. In wells G10, H10, and I10, a negative control was prepared by adding 16 μL Lysis Buffer and 4 μL mixed Antibody Solution. The plate was sealed with a clear seal and covered with an aluminum lid. The plate was spun down at 800 g for 5 min and incubated in the dark at room temperature overnight. The next day, the plate was spun down at 800 g for 5 min. The samples were analyzed by a plate reader (Envision, PerkinElmer) using the Desnor 384 HTRF program.

Row | ALE THP1 HTRF YMIN [%] | DC50 [nM] | SMILES
1 | >95 | > 10000 | N[C@@H]1C[C@@H](F)CN(c2ccn3ncc(C(=O)Nc4cn([C@H]5CC[C@H](CCN6CCC[C@H](c7ccc(C8CCC(=O)NC8=O)cc7)C6)CC5)nc4C(F)F)c3n2)C1 (stereo in doubt) [Compound P-29]
2 | 18 | 405 | N[C@@H]1C[C@@H](F)CN(c2ccn3ncc(C(=O)Nc4cn([C@H]5CC[C@H](CN6CCN(Cc7ccc(C8CCC(=O)NC8=O)cc7)CC6)CC5)nc4C(F)(F)F)c3n2)C1 (stereo partly drawn) [Compound P-13]
3 | 11 | 4 | N[C@@H]1C[C@@H](F)CN(c2ccn3ncc(C(=O)Nc4cn([C@H]5CC[C@H](C(=O)NC6CCN(c7ccc(C8CCC(=O)NC8=O)cc7)CC6)CC5)nc4C(F)F)c3n2)C1 (stereo partly drawn) [Compound P-15, 5-[(3R,5R)-3-amino-5-fluoro-1-piperidyl]-N-[3-(difluoromethyl)-1-[4-[[1-[4-(2,6-dioxo-3-piperidyl)phenyl]-4-piperidyl]carbamoyl]cyclohexyl]pyrazol-4-yl]pyrazolo[1,5-a]pyrimidine-3-carboxamide hydrochloride]
4 | 13 | 9180 | N[C@@H]1C[C@@H](F)CN(c2ccn3ncc(C(=O)Nc4cn([C@H]5CC[C@H](CN6CCC7(CC6)CN(c6cccc(C8CCC(=O)NC8=O)c6)C7)CC5)nc4C(F)F)c3n2)C1 (stereo partly drawn) [Compound P-18]
5 | 11 | 10 | CN(CC1CCN(C[C@H]2CC[C@H](n3cc(NC(=O)c4cnn5ccc(N6C[C@H](N)C[C@@H](F)C6)nc45)c(C(F)F)n3)CC2)CC1)c1cccc(C2CCC(=O)NC2=O)c1 (stereo partly drawn) [Compound P-19, N-[3-(Difluoromethyl)-1-[4-[4-[[3-(2,6-dioxo-3-piperidyl)-N-methyl-anilino]methyl]-1-piperidyl]methyl]cyclohexyl]pyrazol-4-yl]-5-[(3R,5R)-3-amino-5-fluoro-1-piperidyl]pyrazolo[1,5-a]pyrimidine-3-carboxamide dihydrochloride]
6 | 15 | 10 | N[C@@H]1C[C@@H](F)CN(c2ccn3ncc(C(=O)Nc4cn([C@H]5CC[C@H](CCN6CCN(c7ccc(C8CCC(=O)NC8=O)cc7)CC6)CC5)nc4C(F)F)c3n2)C1 (stereo partly drawn) [Compound P-21, N-[3-(Difluoromethyl)-1-[4-[2-[4-[4-(2,6-dioxo-3-piperidyl)phenyl]piperazin-1-ylethyl]cyclohexyl]pyrazol-4-yl]-5-[(3R,5R)-3-amino-5-fluoro-1-piperidyl]pyrazolo[1,5-a]pyrimidine-3-carboxamide formic acid salt]
7 | 15 | 11 | N[C@@H]1C[C@@H](F)CN(c2ccn3ncc(C(=O)Nc4cn([C@H]5CC[C@H](CCN6CCC7(CC6)CN(c6ccc(C8CCC(=O)NC8=O)cc6)C7)CC5)nc4C(F)F)c3n2)C1 (stereo partly drawn) [Compound P-23, N-[3-(Difluoromethyl)-1-[4-[2-[2-[4-(2,6-dioxo-3-piperidyl)phenyl]-2,7-diazaspiro[3.5]nonan-7-yl]ethyl]cyclohexyl]pyrazol-4-yl]-5-[(3R,5R)-3-amino-5-fluoro-1-piperidyl]pyrazolo[1,5-a]pyrimidine-3-carboxamide formic acid salt]

Further lines, the compound ahead of its results:

Row | SMILES | ALE THP1 HTRF YMIN [%] | DC50 [nM]
8 | N[C@@H]1C[C@@H](F)CN(c2ccn3ncc(C(=O)Nc4cn([C@H]5CC[C@H](CN6CCN(C(=O)c7ccc(C8CCC(=O)NC8=O)cc7)CC6)CC5)nc4C(F)(F)F)c3n2)C1 (stereo partly drawn) [Compound P-4] | 32 | > 10000
9 | N[C@@H]1C[C@@H](F)CN(c2ccn3ncc(C(=O)Nc4cn([C@H]5CC[C@H](CN6CCC(Nc7ccc(C8CCC(=O)NC8=O)cc7)CC6)CC5)nc4C(F)(F)F)c3n2)C1 (stereo partly drawn) [Compound P-5, N-[1-[4-[[4-[4-(2,6-dioxo-3-piperidyl)anilino]-1-piperidyl]methyl]cyclohexyl]-3-(trifluoromethyl)pyrazol-4-yl]-5-[(3R,5R)-3-amino-5-fluoro-1-piperidyl]pyrazolo[1,5-a]pyrimidine-3-carboxamide hydrochloride] | 45 | 57
10 | N[C@@H]1C[C@@H](F)CN(c2ccn3ncc(C(=O)Nc4cn([C@H]5CC[C@H](CN6CCC(CNc7cccc(C8CCC(=O)NC8=O)c7)CC6)CC5)nc4C(F)(F)F)c3n2)C1 (stereo partly drawn) [Compound P-6, 5-((3R,5R)-3-amino-5-fluoropiperidin-1-yl)-N-(1-((1r,4r)-4-((4-(((3-(2,6-dioxopiperidin-3-yl)phenyl)amino)methyl)piperidin-1-yl)methyl)cyclohexyl)-3-(trifluoromethyl)-1H-pyrazol-4-yl) pyrazolo[1,5-a]pyrimidine-3-carboxamide hydrochloride] | 15 | 17
11 | N[C@@H]1C[C@@H](F)CN(c2ccn3ncc(C(=O)Nc4cn([C@H]5CC[C@H](CN6CCC(Nc7cccc(C8CCC(=O)NC8=O)c7)CC6)CC5)nc4C(F)(F)F)c3n2)C1 (stereo partly drawn) [Compound P-8] | >95 | > 10000
12 | N[C@@H]1C[C@@H](F)CN(c2ccn3ncc(C(=O)Nc4cn([C@H]5CC[C@H](C(=O)N6CCN(Cc7ccc(C8CCC(=O)NC8=O)cc7)CC6)CC5)nc4C(F)(F)F)c3n2)C1 (stereo partly drawn) [Compound P-12] | 57 | 6860
13 | N[C@@H]1C[C@@H](F)CN(c2ccn3ncc(C(=O)Nc4cn([C@H]5CC[C@H](C(=O)NC6CCN(c7cccc(C8CCC(=O)NC8=O)c7)CC6)CC5)nc4C(F)F)c3n2)C1 (stereo partly drawn) [Compound P-14] | 64 | > 10000
14 | CN(CC1CCN(C(=O)[C@H]2CC[C@H](n3cc(NC(=O)c4cnn5ccc(N6C[C@H](N)C[C@@H](F)C6)nc45)c(C(F)F)n3)CC2)CC1)c1cccc(C2CCC(=O)NC2=O)c1 (stereo partly drawn) [Compound P-16, 5-((3R,5R)-3-amino-5-fluoropiperidin-1-yl)-N-(3-(difluoromethyl)-1-((1r,4r)-4-(4-(((3-(2,6-dioxopiperidin-3-yl)phenyl)(methyl)amino)methyl)piperidine-1-carbonyl)cyclohexyl)-1H-pyrazol-4-yl)pyrazolo[1,5-a]pyrimidine-3-carboxamide hydrochloride] | 18 | 28
15 | N[C@@H]1C[C@@H](F)CN(c2ccn3ncc(C(=O)Nc4cn([C@H]5CC[C@H](C(=O)N6CCC7(CC6)CN(c6cccc(C8CCC(=O)NC8=O)c6)C7)CC5)nc4C(F)F)c3n2)C1 (stereo partly drawn) [Compound P-17] | 73 | > 10000
16 | N[C@@H]1C[C@@H](F)CN(c2ccn3ncc(C(=O)Nc4cn([C@H]5CC[C@H](CCN6CCC(c7ccc(C8CCC(=O)NC8=O)cc7)CC6)CC5)nc4C(F)F)c3n2)C1 (stereo partly drawn) [Compound P-20] | 12 | 11
17 | N[C@@H]1C[C@@H](F)CN(c2ccn3ncc(C(=O)Nc4cn([C@H]5CC[C@H](CCN6CCN(c7cccc(C8CCC(=O)NC8=O)c7)CC6)CC5)nc4C(F)F)c3n2)C1 (stereo partly drawn) [Compound P-22] | 43 | 3010
18 | N[C@@H]1C[C@@H](F)CN(c2ccn3ncc(C(=O)Nc4cn([C@H]5CC[C@H](CCN6CCC(Nc7cccc(C8CCC(=O)NC8=O)c7)CC6)CC5)nc4C(F)F)c3n2)C1 (stereo partly drawn) [Compound P-24, 5-((3R,5R)-3-Amino-5-fluoropiperidin-1-yl)-N-(3-(difluoromethyl)-1-((1r,4r)-4-(2-(4-((3-(2,6-dioxopiperidin-3-yl)phenyl)amino)piperidin-1-yl)ethyl)cyclohexyl)-1H-pyrazol-4-yl) pyrazolo[1,5-a]pyrimidine-3-carboxamide dihydrochloride] | 12 | 12
